Legend:
[1] = molecular target: T1, PERK in GripTite 293 cells expressing GFP-eIF2α (Homo sapiens, UniProt Q9NZJ5); test: In vitro inhibition of PERK enzyme activity (whole cell), tunicamycin-induced phospho-eIF2α TR-FRET; assay type: cell-based; details: 1 h pre-treatment, Tunicamycin 1 μM 2 h
T1 construct: Add Tunicamycin (1 μM) to induce PERK activity; endogenous in cells; host or cells: GripTite 293 cells expressing GFP-eIF2α
T1 sequence (Q9NZJ5 30-1116): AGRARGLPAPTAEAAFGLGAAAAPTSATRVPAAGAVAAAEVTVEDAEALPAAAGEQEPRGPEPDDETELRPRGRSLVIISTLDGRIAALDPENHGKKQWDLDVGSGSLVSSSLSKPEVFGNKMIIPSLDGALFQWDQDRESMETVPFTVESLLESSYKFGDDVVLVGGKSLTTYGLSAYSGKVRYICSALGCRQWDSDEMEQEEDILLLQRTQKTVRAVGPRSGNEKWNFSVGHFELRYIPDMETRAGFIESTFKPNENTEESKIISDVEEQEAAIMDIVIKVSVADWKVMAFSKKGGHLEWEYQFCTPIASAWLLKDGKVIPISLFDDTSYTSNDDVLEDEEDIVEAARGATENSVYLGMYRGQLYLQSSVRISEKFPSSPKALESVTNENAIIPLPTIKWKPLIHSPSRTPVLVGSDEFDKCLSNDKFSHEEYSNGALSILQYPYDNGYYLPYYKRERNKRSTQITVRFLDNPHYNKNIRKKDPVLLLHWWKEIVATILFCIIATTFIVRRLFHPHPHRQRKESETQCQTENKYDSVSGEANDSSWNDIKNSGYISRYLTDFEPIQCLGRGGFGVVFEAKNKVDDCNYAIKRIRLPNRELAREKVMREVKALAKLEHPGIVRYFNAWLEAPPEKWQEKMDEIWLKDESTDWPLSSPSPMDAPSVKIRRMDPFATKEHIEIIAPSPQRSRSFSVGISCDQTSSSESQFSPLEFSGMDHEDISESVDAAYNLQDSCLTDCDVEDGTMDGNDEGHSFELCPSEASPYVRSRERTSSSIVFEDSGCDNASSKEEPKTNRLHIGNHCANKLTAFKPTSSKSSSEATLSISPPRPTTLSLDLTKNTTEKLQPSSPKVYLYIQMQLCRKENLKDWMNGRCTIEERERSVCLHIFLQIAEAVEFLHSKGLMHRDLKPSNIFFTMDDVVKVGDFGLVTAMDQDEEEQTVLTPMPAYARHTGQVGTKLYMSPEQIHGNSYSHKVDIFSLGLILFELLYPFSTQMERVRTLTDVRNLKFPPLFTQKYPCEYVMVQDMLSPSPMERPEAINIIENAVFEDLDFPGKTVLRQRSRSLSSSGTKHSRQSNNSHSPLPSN
Method: Seed GripTite™ 293 cells (Invitrogen, Carlsbad, CA) expressing GFP-eIF2α at 10,000 cells per well in 384-well plates and allow to attach overnight. Pre-treat cells with test compounds for 1 hour. Add Tunicamycin (1 μM) to induce PERK activity and incubate the plates at 37° C. for 2 hours. Remove the culture media and lyse the cells in buffer consisting of 20 mM Tris-HCl, pH 7.5, 150 mM NaCl, 5 mM EDTA, 1% NP-40, 5 mM NaF, Protease inhibitors (Sigma, St. Louis, MO), Phosphatase inhibitors (Sigma, St. Louis, MO), and 2 nM Terbium-labelled anti-phospho-eIF2 antibody (Invitrogen, Carlsbad, CA). Incubate the cell lysates for 2 hours in the dark at room temperature and monitor fluorescence in an EnVison® Multilabel reader (PerkinElmer, Waltham, MA). Determine TR-FRET ratios and the resulting IC50 values from the fitted inhibition curves using un-induced (100% inhibition) and induced (0% inhibition) wells as controls.

BxPC-3 cells = test: In vivo inhibition of pancreatic cancer (mouse xenograft model); design: species or system female athymic nude mice
Method: Implant female athymic nude mice (Harlan Laboratories) subcutaneously with 5×10^6 BxPC-3 cells containing matrigel on the right flank and monitor tumor growth with calipers. Initiate compound dosing when tumors reach ˜250 mm^3 and dose mice twice per day by oral gavage (8 animals per group) for 28 days. Formulate compounds in 10% Acacia containing 0.05% anti-foam or 20% Captisol in 25 mM NaPO4 buffer pH […] the compounds of Examples 5 and 9, respectively. Treat control animals with Acacia vehicle alone. Estimate tumor volumes using the formula l×w^2×(π/6), where l is the larger measured diameter and w is the smaller perpendicular diameter. Calculate percent delta T/C using the formula 100×[(T−T0)/(C−C0)] and percent regression using the formula 100×[(T−T0)/T0], where T and C are mean tumor volumes in the treated and control groups, respectively. T0 and C0 are the corresponding baseline mean tumor volumes. Convert percent delta T/C to percent delta tumor growth inhibition (TGI) using the equation, 100−percent delta T/C. For statistical analysis, transform tumor volume data to log10 scale to equalize variance across time and treatment groups. Analyze the log10 volume data with a two-way repeated measures analysis of variance (Spatial Power correlation model) by time and treatment using the MIXED procedures in the SAS software package (Version 9.3). Compare treated groups to the control group at each time point.

[2] = molecular target: T2, EIF2AK3 (PERK) catalytic domain (Homo sapiens, UniProt Q9NZJ5); test: In vitro inhibition of PERK enzyme activity (isolated), TR-FRET kinase assay; assay type: biochemical; details: 1.5 μM ATP, 45 min
T2 construct: EIF2AK3 (PERK) catalytic domain (amino acids 536-1116); purchased Invitrogen, Carlsbad, CA
T2 sequence (Q9NZJ5 536-1116): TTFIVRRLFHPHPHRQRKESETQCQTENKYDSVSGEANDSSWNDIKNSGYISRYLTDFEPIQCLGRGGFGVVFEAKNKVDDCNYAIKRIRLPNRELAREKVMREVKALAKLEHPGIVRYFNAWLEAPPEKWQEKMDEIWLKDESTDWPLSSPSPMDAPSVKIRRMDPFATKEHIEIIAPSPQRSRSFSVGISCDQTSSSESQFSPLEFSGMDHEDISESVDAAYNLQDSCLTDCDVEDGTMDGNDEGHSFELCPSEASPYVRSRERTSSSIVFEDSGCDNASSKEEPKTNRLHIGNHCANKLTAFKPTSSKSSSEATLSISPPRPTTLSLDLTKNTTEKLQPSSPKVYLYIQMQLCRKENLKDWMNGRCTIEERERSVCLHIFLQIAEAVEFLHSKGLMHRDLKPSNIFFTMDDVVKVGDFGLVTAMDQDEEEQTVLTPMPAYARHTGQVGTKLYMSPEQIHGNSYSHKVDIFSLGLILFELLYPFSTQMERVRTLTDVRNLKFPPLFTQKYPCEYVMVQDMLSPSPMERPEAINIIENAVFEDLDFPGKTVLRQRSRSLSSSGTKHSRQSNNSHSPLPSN
Method: (§1) Recombinant human EIF2AK2 (PKR) catalytic domain (amino acids 252-551), EIF2AK3 (PERK) catalytic domain (amino acids 536-1116), GFP-eIF2α substrate, and Terbium-labelled phospho-eIF2a antibody is obtained (Invitrogen, Carlsbad, CA). Express and purify HIS-SUMO-GCN2 catalytic domain (amino acids 584-1019) from E. coli. Perform TR-FRET kinase assays in the absence or presence of inhibitors in a reaction buffer consisting of 50 mM HEPES, pH 7.5, 10 mM MgCl2, 1.0 mM EGTA, and 0.01% Brij-35, and 100-200 nM GFP-eIF2α substrate. […] Add test compound, initiate the reaction by addition of enzyme, and incubate at room temperature for 45 minutes. Stop the reaction by addition of EDTA to a final concentration of 10 mM, add Terbium-labelled phospho-eIF2α antibody at a final concentration of 2 nM, and incubate for 90 minutes. Monitor the resulting fluorescence in an EnVison® Multilabel reader (PerkinElmer, Waltham, MA). Determine TR-FRET ratios and the resulting IC50 values using a 4-parameter nonlinear logistic equation as shown: Y=(A+((B−A)/(1+((C/x)^D)))) where, Y=% specific inhibition, A=Bottom of the curve, B=Top of the curve, C=absolute IC50 (concentration causing 50% inhibition), and D=hill slope.

[3] = molecular target: T3, EIF2AK2 (PKR) catalytic domain (Homo sapiens, UniProt P19525); test: TR-FRET kinase assay, PKR; assay type: biochemical; details: 2.5 μM ATP, 45 min; read-out: Enzyme IC50 PKR
T3 construct: Recombinant human EIF2AK2 (PKR) catalytic domain (amino acids 252-551); purchased Invitrogen, Carlsbad, CA
T3 sequence (P19525 252-551): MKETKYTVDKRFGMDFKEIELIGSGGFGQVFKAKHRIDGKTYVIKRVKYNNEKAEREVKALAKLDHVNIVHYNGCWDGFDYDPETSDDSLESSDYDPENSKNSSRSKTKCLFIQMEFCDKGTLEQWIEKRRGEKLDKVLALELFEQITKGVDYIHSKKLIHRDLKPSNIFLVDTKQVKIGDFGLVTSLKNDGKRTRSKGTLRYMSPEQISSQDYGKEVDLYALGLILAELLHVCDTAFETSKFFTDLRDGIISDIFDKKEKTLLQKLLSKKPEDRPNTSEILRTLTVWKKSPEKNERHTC
Method: as §1

[4] = 30 mg/kg PO BID group, day 21 post-implant (before start of treatment)
[5] = 30 mg/kg PO BID group, day 24 post-implant (before start of treatment)
[6] = 30 mg/kg PO BID group, day 32 post-implant (before start of treatment)
[7] = 30 mg/kg PO BID group, day 35 post-implant (before start of treatment)
[8] = 30 mg/kg PO BID group, day 39 post-implant (before start of treatment)
[9] = 30 mg/kg PO BID group, day 47 post-implant (before start of treatment)
[10] = 30 mg/kg PO BID group, day 52 post-implant (day of randomization and start of treatment)
[11] = 30 mg/kg PO BID, day 60 post-implant
[12] = 30 mg/kg PO BID, day 67 post-implant
[13] = 30 mg/kg PO BID, day 72 post-implant
[14] = 30 mg/kg PO BID, day 74 post-implant
[15] = 30 mg/kg PO BID, day 76 post-implant
[16] = 30 mg/kg PO BID, day 79 post-implant

SMILES	Mean tumor volume (BxPC-3 cells; [4]) [mm^3]	Mean tumor volume (BxPC-3 cells; [5]) [mm^3]	Mean tumor volume (BxPC-3 cells; [6]) [mm^3]	Mean tumor volume (BxPC-3 cells; [7]) [mm^3]	Mean tumor volume (BxPC-3 cells; [8]) [mm^3]	Mean tumor volume (BxPC-3 cells; [9]) [mm^3]	Mean tumor volume (BxPC-3 cells; [10]) [mm^3]	Mean tumor volume (BxPC-3 cells; [11]) [mm^3]	T/C (BxPC-3 cells; [11]) [%]	TGI (Tumor Growth Inhibition) (BxPC-3 cells; [11]) [%]	Mean tumor volume (BxPC-3 cells; [12]) [mm^3]	T/C (BxPC-3 cells; [12]) [%]	TGI (Tumor Growth Inhibition) (BxPC-3 cells; [12]) [%]	Mean tumor volume (BxPC-3 cells; [13]) [mm^3]	T/C (BxPC-3 cells; [13]) [%]	TGI (Tumor Growth Inhibition) (BxPC-3 cells; [13]) [%]	Mean tumor volume (BxPC-3 cells; [14]) [mm^3]	T/C (BxPC-3 cells; [14]) [%]	TGI (Tumor Growth Inhibition) (BxPC-3 cells; [14]) [%]	Mean tumor volume (BxPC-3 cells; [15]) [mm^3]	other results
Cc1cc(NC(=O)[C@H](O)c2cccc(F)c2)ccc1-c1cn(C)c2ncnc(N)c12 [Example 9, (2R)—N-[4-(4-amino-7-methyl-pyrrolo[2,3-d]pyrimidin-5-yl)-3-methyl-phenyl]-2-(3-fluorophenyl)-2-hydroxy-acetamide]	111.9	134.3	153.7	162.6	167.1	196.4	244.2	284.8	40.8	59.2	317.2	27.4	72.6	380.5	37.3	62.7	418.3	36.0	64.0	480.4	IC50 [1]: 0.028 ± 0.011 µM; T/C (BxPC-3 cells; [15]): 45.1%; TGI (Tumor Growth Inhibition) (BxPC-3 cells; [15]): 54.9%; Mean tumor volume (BxPC-3 cells; [16]): 541.6 mm^3; T/C (BxPC-3 cells; [16]): 40.5%; TGI (Tumor Growth Inhibition) (BxPC-3 cells; [16]): 59.5%; IC50 [2]: 0.0024 ± 0.001 µM
CNC(=O)c1nc(-c2ccc(NC(=O)[C@H](O)c3cc(F)cc(F)c3)cc2C)cnc1N [Example 5, 3-amino-6-[4-[[(2R)-2-(3,5-difluorophenyl)-2-hydroxy-acetyl]amino]-2-methyl-phenyl]-N-methyl-pyrazine-2-carboxamide]	123.9	132.8	143.4	174.6	183.8	213.7	252.0	311.8	71.5	28.5	387.8	55.8	44.2	435.0	52.7	47.3	487.5	50.7	49.3	528.8	T/C (BxPC-3 cells; [15]): 54.5%; TGI (Tumor Growth Inhibition) (BxPC-3 cells; [15]): 45.5%; Mean tumor volume (BxPC-3 cells; [16]): 593.2 mm^3; T/C (BxPC-3 cells; [16]): 47.7%; TGI (Tumor Growth Inhibition) (BxPC-3 cells; [16]): 52.3%; IC50 [3]: > 20 µM
Cc1cc(NC(=O)[C@H](O)c2cc(F)cc(F)c2)ccc1-c1cnc(N)c(C(=O)NC(C)C)c1 [Example 1, 2-amino-5-[4-[[(2R)-2-(3,5-difluorophenyl)-2-hydroxy-acetyl]amino]-2-methyl-phenyl]-N-isopropyl-pyridine-3-carboxamide]																					IC50 [3]: > 20 µM; IC50 [2]: 0.0022 ± 0.0012 µM

— patent US12590064B2, “Substituted benzamides for inhibiting perk activity” (ELI LILLY AND COMPANY, priority 2017, dated 2026)
